Assay results from ChEMBL document CHEMBL5126595, “Identification and anti-tumor evaluation of 3-acyl-indol-based 2,4-diarylaminopyrimidine analogues as potent ALK inhibitors capable of overcoming drug-resistant mutants” (Eur J Med Chem, 2022).
The source made the active and inactive calls. No cut-off for these calls is given here.

Assays:
[1] = biological target: T1, ALK tyrosine kinase receptor (Homo sapiens, UniProt Q9UM73); assay: Inhibition of ALK downstream signalling in human NCI-H2228 cells assessed as reduction in AKT level measured after 24 hrs by Western blot analysis; format: cell-based; settings: dose 25-100 nM, DDE = dose-dependent effect
Target sequence in this assay (Q9UM73 19-1620 limits assumed): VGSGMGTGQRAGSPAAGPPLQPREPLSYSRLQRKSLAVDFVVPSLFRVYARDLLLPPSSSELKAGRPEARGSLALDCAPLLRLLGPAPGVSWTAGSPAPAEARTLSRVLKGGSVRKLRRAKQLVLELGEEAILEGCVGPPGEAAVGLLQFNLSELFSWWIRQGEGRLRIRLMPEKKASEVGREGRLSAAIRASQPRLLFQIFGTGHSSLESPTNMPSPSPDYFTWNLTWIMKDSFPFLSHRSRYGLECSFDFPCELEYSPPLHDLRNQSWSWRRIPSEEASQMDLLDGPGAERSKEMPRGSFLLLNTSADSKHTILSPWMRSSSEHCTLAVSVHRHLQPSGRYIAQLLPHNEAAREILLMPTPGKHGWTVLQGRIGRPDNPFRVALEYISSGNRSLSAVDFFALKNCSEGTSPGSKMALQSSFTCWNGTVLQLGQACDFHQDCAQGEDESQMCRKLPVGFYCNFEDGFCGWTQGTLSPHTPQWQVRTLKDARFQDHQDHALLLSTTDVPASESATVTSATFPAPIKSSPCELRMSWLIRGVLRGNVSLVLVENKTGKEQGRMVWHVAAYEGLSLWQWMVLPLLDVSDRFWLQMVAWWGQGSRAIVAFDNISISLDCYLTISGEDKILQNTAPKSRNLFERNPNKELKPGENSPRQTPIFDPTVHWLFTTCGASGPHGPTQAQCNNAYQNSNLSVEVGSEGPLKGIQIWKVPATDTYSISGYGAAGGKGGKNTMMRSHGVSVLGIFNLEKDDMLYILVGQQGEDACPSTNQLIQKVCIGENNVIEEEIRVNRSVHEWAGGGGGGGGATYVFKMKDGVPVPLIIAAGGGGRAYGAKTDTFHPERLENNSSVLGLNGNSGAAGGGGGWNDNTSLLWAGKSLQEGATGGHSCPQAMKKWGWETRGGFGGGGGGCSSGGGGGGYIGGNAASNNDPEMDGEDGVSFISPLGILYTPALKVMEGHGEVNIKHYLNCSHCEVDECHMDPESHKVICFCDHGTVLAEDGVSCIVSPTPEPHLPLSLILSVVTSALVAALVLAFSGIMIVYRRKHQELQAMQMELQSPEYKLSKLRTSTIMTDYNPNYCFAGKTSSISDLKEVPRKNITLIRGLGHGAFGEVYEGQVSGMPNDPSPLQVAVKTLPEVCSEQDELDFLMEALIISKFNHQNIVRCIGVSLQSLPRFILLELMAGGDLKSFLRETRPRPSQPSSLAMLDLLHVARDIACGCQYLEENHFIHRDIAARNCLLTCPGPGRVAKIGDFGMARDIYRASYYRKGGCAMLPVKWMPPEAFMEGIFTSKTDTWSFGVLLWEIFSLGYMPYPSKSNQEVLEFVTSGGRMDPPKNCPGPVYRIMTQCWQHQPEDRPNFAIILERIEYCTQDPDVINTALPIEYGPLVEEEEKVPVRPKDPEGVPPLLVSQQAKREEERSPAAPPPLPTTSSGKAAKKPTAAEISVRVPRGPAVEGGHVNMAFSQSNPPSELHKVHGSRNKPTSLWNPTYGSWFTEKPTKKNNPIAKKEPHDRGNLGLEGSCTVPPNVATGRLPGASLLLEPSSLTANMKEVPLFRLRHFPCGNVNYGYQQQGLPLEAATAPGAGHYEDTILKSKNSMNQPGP

[2] = Toxicity in BALB/c nude mouse xenografted with human NCI-H2228 cells assessed as effect on body weight at 25 to 50 mg/kg, IG administered every 2 days for 7 times; format: organism-based; settings: in vivo, po, 48 h, dose 25-50 mg/kg, time 2 day
[3] = Antiproliferative activity […] EML4-ALK-G1202R cells assessed as inhibition of cell growth incubated for 72 hrs by MTT assay; format: functional, cell-based
[4] = test system: NCI-H2228; assay: Induction of apoptosis in human NCI-H2228 cells assessed as early apoptotic cells by measuring bright green fluorescence at 25 nM incubated for 48 hrs by AO/EB staining based fluorescence microscopic analysis; format: functional, cell-based
[5] = test system: KARPAS-299; assay: Antiproliferative activity against NPM-ALK positive human KARPAS-299 cells assessed as inhibition of cell growth incubated for 72 hrs by MTT assay; format: functional, cell-based; settings: KARPAS-299, 72 h
[6] = Clearance in Sprague-Dawley rat at 2 mg/kg, iv by LC-MS/MS analysis; format: ADME, organism-based; settings: in vivo
[7] = test system: NCI-H2228; assay: Induction of apoptosis in human NCI-H2228 cells assessed as early apoptotic cells at 100 nM incubated for 48 hrs by AnnexinV-FITC/propidium iodide staining based flow cytometry analysis (reference value: 2.45 %); format: functional
[8] = test system: HT-29; assay: cells; settings: Homo sapiens, HT-29, 72 h
Description: Antiproliferative activity against human HT-29 cells assessed as inhibition of cell growth incubated for 72 hrs by MTT assay

[9] = test system: NCI-H2228; assay: Induction of cell cycle arrest in human NCI-H2228 cells assessed as decrease in G2 phase cells at 25 nM incubated for 48 hrs by PI/RNase staining based flow cytometry analysis (reference value: 15.38 %); format: functional; set-up: scale not given: the % may be the effect or the level left
[10] = Oral bioavailability in Sprague-Dawley rat at 10 mg/kg by LC-MS/MS analysis; format: ADME, organism-based; settings: in vivo
[11] = test system: NCI-H2228; assay: Inhibition of cell migration in human NCI-H2228 cells measured at 24 to 48 hrs by inverted microscopic based cell scratch assay; format: functional; settings: dose 2.5-10 nM, time 24-48 hrs, DDE = dose-dependent effect
[12] = Half-life in Sprague-Dawley rat at 2 mg/kg, iv by LC-MS/MS analysis; format: ADME, organism-based; settings: in vivo
[13] = test system: PC-3; assay: Antiproliferative activity against human PC-3 cells assessed as inhibition of cell growth incubated for 72 hrs by MTT assay; format: functional, cell-based; settings: PC-3, 72 h
[14] = test system: NCI-H2228; assay: Induction of cell cycle arrest in human NCI-H2228 cells assessed as decrease in S phase cells at 25 nM incubated for 48 hrs by PI/RNase staining based flow cytometry analysis (reference value: 34.90 %); format: functional; set-up: scale not given: the % may be the effect or the level left
[15] = test system: NCI-H2228; assay: Induction of cell cycle arrest in human NCI-H2228 cells assessed as increase in G1 phase cells at 100 nM incubated for 48 hrs by PI/RNase staining based flow cytometry analysis (reference value: 49.72 %); format: functional
[16] = Cmax in Sprague-Dawley rat at 10 mg/kg, po by LC-MS/MS analysis; format: ADME, organism-based; set-up: dose 10 mg/kg, route po; settings: in vivo
[17] = test system: NCI-H2228; assay: Induction of apoptosis in human NCI-H2228 cells assessed as necrotic cells at 100 nM incubated for 48 hrs by AnnexinV-FITC/propidium iodide staining based flow cytometry analysis (reference value: 0.55 %); format: functional
[18] = test system: NCI-H2228; assay: Inhibition of cell migration in human NCI-H2228 cells at 10 nM measured at 48 hrs by inverted microscopic based cell scratch assay relative to control; format: functional
[19] = biological target: T1, ALK tyrosine kinase receptor; assay: Inhibition of N-terminal GST-tagged human wild type ALK (1058 to 1620 residues) cytoplasmic domain expressed in baculovirus infected Sf21 cells incubated for 1 hrs in the presence of ATP by mobility shift assay
Target sequence in this assay (Q9UM73 whole entry): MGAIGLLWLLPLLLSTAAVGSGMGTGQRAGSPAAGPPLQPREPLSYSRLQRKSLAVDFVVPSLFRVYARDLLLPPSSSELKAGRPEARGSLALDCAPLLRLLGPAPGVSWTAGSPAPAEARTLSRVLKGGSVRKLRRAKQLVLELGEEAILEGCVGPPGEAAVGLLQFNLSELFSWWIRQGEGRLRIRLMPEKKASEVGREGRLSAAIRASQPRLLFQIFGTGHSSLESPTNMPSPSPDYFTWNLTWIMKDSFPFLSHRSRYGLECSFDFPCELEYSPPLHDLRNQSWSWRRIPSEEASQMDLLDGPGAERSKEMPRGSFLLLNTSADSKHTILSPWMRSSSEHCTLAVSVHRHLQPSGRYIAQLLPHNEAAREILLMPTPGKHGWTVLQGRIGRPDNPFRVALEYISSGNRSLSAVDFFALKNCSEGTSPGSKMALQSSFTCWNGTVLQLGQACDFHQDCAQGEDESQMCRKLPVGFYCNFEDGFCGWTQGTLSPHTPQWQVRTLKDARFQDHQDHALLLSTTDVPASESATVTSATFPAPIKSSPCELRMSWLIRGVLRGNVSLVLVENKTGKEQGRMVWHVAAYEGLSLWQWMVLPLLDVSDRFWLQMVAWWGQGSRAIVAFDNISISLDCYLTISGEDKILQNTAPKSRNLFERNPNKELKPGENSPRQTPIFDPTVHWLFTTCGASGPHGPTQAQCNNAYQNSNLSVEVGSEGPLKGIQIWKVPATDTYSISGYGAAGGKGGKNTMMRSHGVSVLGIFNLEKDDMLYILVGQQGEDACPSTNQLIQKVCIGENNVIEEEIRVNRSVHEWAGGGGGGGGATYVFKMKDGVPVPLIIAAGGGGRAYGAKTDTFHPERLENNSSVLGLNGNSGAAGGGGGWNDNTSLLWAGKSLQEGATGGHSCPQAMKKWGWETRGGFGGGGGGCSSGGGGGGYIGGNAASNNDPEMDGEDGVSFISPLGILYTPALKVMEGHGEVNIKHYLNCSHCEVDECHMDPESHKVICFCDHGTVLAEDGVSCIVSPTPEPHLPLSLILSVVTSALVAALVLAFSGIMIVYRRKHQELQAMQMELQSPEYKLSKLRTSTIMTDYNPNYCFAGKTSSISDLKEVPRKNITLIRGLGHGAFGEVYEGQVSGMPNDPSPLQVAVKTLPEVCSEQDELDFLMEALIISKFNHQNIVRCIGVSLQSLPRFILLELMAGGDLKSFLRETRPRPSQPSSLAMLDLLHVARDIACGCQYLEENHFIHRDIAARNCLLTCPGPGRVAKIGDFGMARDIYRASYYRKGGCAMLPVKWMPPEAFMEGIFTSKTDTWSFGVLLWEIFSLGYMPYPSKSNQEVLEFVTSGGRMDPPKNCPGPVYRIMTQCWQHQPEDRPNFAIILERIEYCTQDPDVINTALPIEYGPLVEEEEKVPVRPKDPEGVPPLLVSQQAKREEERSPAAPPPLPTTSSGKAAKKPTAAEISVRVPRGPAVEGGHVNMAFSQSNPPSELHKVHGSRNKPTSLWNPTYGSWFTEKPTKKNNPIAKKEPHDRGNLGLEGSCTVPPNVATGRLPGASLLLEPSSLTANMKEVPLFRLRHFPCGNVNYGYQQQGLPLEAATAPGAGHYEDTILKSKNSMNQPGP

[20] = biological target: ALK tyrosine kinase receptor (Homo sapiens, UniProt Q9UM73, G1202R); assay: Inhibition of N-terminal GST-tagged human ceritinib-resistant ALK G1202R mutant (1058 to 1620 residues) cytoplasmic domain expressed in baculovirus infected Sf21 cells incubated for 1 hrs in the presence of ATP by mobility shift assay
ALK tyrosine kinase receptor (Homo sapiens, UniProt Q9UM73, G1202R), sequence (Q9UM73 19-1620 G1202R limits assumed): as the sequence (Q9UM73 19-1620 limits assumed) above, with G1184R counted along it

[21] = test system: NCI-H2228; assay: Induction of apoptosis in human NCI-H2228 cells assessed as ruptured nuclei at 25 to 100 nM incubated for 48 hrs by Hoechst 33342 staining based fluorescence microscopic analysis; format: functional, cell-based; settings: dose 25-100 nM
[22] = biological target: T1, ALK tyrosine kinase receptor; assay: Inhibition of ALK phosphorylation in human NCI-H2228 cells measured after 24 hrs by Western blot analysis; format: cell-based; settings: dose 25-100 nM, DDE = dose-dependent effect
Target sequence in this assay (Q9UM73 19-1620 limits assumed): as the sequence (Q9UM73 19-1620 limits assumed) above

[23] = biological target: T1, ALK tyrosine kinase receptor; assay: Inhibition of ALK downstream signalling in human NCI-H2228 cells assessed as reduction in ERK level measured after 24 hrs by Western blot analysis; format: cell-based; settings: dose 25-100 nM, DDE = dose-dependent effect
Target sequence in this assay (Q9UM73 19-1620 limits assumed): as above

[24] = test system: NCI-H2228; assay: Antitumor activity against human NCI-H2228 cells xenografted in BALB/c nude mouse assessed as tumor growth inhibition at 50 mg/kg, IG administered every 2 days for 7 times relative to control; format: functional; settings: NCI-H2228, po, 336 h, time 14 day, read-out: TGI
[25] = Metabolic stability in Sprague-Dawley rat liver microsomes assessed as parent compound remaining preincubated for 5 mins in the presence of NADPH followed by microsomal addition and measured upto 60 mins by HPLC analysis; format: ADME, Microsome; settings: time < 65 min, read-out: Stability
[26] = Metabolic stability in Sprague-Dawley rat liver microsomes assessed as parent compound remaining measured upto 60 mins by HPLC analysis; format: ADME, Microsome; settings: read-out: Stability
[27] = test system: NCI-H2228; assay: Induction of apoptosis in human NCI-H2228 cells assessed as appearance of apoptotic bodies at 25 to 100 nM incubated for 48 hrs by Hoechst 33342 staining based fluorescence microscopic analysis; format: functional, cell-based; settings: dose 25-100 nM
[28] = biological target: Epidermal growth factor receptor (Homo sapiens, UniProt P00533); assay: Inhibition of human EGFR (669 to 1210 residues) cytoplasmic domain expressed in baculovirus infected Sf21 cells incubated for 1 hrs in the presence of ATP by mobility shift assay
Epidermal growth factor receptor, sequence (P00533 whole entry, the tested form may be a part): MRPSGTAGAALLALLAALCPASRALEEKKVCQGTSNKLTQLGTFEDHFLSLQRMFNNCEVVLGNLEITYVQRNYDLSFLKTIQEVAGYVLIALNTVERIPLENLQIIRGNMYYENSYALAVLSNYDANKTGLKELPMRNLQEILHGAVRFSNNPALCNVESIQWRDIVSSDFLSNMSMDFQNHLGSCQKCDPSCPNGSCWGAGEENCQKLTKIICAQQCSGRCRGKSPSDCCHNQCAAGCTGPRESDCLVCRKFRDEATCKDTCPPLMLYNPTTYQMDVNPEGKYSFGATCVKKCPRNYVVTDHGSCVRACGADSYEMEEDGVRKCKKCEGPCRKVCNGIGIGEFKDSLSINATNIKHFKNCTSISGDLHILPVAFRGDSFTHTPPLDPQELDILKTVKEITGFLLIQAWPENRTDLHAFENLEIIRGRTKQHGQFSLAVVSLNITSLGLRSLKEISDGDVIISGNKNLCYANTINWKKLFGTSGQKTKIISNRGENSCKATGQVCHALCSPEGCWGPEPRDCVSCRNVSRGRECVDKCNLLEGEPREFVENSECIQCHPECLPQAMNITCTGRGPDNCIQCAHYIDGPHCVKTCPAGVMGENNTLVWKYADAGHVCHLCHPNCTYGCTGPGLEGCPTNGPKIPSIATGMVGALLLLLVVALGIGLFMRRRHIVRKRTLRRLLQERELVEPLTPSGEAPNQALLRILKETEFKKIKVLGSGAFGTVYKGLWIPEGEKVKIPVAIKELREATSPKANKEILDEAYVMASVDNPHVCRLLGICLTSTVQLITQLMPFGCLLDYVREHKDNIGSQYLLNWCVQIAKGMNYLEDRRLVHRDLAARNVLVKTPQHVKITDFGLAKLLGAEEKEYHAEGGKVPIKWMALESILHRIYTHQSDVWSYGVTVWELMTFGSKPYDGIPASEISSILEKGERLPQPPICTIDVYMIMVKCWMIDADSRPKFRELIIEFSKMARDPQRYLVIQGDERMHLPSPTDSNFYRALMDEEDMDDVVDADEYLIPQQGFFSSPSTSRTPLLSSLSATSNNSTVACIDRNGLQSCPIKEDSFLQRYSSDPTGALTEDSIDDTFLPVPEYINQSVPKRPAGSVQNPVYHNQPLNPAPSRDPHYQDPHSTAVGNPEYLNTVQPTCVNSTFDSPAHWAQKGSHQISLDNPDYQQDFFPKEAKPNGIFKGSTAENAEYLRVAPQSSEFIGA

[29] = Antiproliferative activity […] EML4-ALK cells assessed as inhibition of cell growth incubated for 72 hrs by MTT assay; format: functional, cell-based
[30] = test system: NCI-H2228; assay: Induction of apoptosis in human NCI-H2228 cells assessed as early apoptotic cells at 25 nM incubated for 48 hrs by AnnexinV-FITC/propidium iodide staining based flow cytometry analysis (reference value: 2.45 %); format: functional
[31] = test system: NCI-H2228; assay: Induction of apoptosis in human NCI-H2228 cells assessed as total apoptotic cells at 50 nM incubated for 48 hrs by AnnexinV-FITC/propidium iodide staining based flow cytometry analysis; format: functional
[32] = test system: NCI-H3122; assay: Antiproliferative activity against EML4-ALK positive human NC-H3122 cells assessed as inhibition of cell growth incubated for 72 hrs by MTT assay; format: functional, cell-based; settings: NCI-H3122, 72 h
[33] = test system: NCI-H2228; assay: Antiproliferative activity against EML4-ALK positive human NCI-H2228 cells assessed as inhibition of cell growth incubated for 72 hrs by MTT assay; format: functional, cell-based; settings: NCI-H2228, 72 h
[34] = Antiproliferative activity […] EML4-ALK-L1196M cells assessed as inhibition of cell growth incubated for 72 hrs by MTT assay; format: functional, cell-based
[35] = MRT in Sprague-Dawley rat at 2 mg/kg, iv by LC-MS/MS analysis; format: ADME, organism-based; settings: in vivo

CNC(=O)c1ccccc1Nc1nc(Nc2ccc3c(C(=O)N(C)C)c(C)[nH]c3c2)ncc1Cl
inhibition [1]: Dde
Activity [2]: Non-Toxic
IC50 [3]: 15 nM
Activity [4]: Active
IC50 [5]: 11 nM
clearance [6]: 36.2 mL/min/kg
Activity [7]: 8.7%
IC50 [8]: 2010 nM
Activity [9]: 12.23%
bioavailability [10]: 38.2%
inhibition [11]: Dde
half-life [12]: 2.5 h
IC50 [13]: 1380 nM
Activity [14]: 34.73%
Activity [15]: 58.51%
Cmax [16]: 346 ng/mL
Activity [17]: 1.71%
inhibition at 0.01 µM [18]: 4.5%
IC50 [19]: 2.3 nM
IC50 [20]: 2.9 nM
Activity [21]: Active
inhibition [22]: Dde
inhibition [23]: Dde
inhibition in vivo at 50 mg/kg [24]: 93.5%
remaining at 1 h [25]: 29.7%
remaining at 1 h [26]: 90%
Activity [27]: Active
IC50 [28]: > 1000 nM
IC50 [29]: 21 nM
Activity [30]: 3.73%
Activity [31]: 23.94%
IC50 [32]: 27 nM
IC50 [33]: 37 nM
IC50 [34]: 21 nM
MRT [35]: 3.5 h
